This is an account of results in patent US20120202891A1, “Cannabinoid-Containing Compositions and Methods for Their Use” (UNIVERSITY OF KENTUCKY RESEARCH FOUNDATION, priority 2009, published 2012).

“And” between values parts separate entries of the source, which are not always exact repeats. Equal values may be shown once. “Also recorded” adds a separate entry of the source. Read-outs that look alike come from different tables or passages of the source. Marks after values point to notes of the source that are not given here.

The test system of one data set is normal (non-CFA) rats. In words: Open field exploratory behavioral activity. It is filed as in vivo, rat. The note with it: 0.6 to 62.3 mg/d, pre-dose versus post-dose and among dose groups. The method, then:
Exploratory behavioral activity of the rats was monitored using the Flexfield Animal Activity System (San Diego Instruments; San Diego, Calif.) with a Photobeam Activity System software coupled to a computer according to previously published methods by Zhang et al., (2004) Pharmacol Biochem Behav 77: 145-153. Briefly, six main parameters were recorded: rearing events and rearing time, active time and resting time, total activity (i.e. number of photobeams disturbed in the x-y-z planes while the rat was moving around in the box or involved in stationary movement such as grooming), and distance traveled. Activity testing was conducted in an isolated, temperature controlled area at similar times daily in order to provide consistent results.
(§1) Baseline parameters (body weight, knee joint temperature, and knee joint circumference) were obtained before the knee injection of rats with CFA. PWL test and exploratory activity testing were also conducted prior to CFA injection. Rats were anesthetized with a short term anesthetic and the left knee joint cavity was injected with CFA for induction of mono-arthritis. […] Exploratory activity was monitored prior to initial gel application and on the third day post gel application (after 6 h). […] Blood samples were obtained for CBD plasma quantification, and tissues (knee joints, dorsal root ganglia, spinal cord, brain) were collected after perfusion. […]

Data set [1] is described as follows: Plasma CBD concentration after topical gel application (LC/MS). The class given is in vivo, rat. Particulars: plasma concentration versus dose, 0.6, 3.1 and 6.2 mg/d. The method, then:
as §1, with “mono-arthritis. On day 3, the back of each animal was shaved. […] Rats received daily treatments for four consecutive days of either vehicle gel, or CBD gel. Gel was applied to the skin in a templated region on the dorsal surface of the rat and rubbed into the skin for 30 sec to ensure complete coverage. The nitrile template was used to ensure specific area reproducibility.” for “mono-arthritis.”
The LC/MS system used to analyze samples was comprised of a Waters Alliance 2695 pump and autosampler, a Micromass™ ZQ detector, and 996 photodiode array detector with MassLynx™ software (Waters Corp., Milford, Mass.). […] The ZQ detector was used with an electrospray ionization (ESI) probe set for single ion monitoring (SIM) for cannabidiol quantification. […]

Another data set concerns normal rats. In words: Paw withdrawal latency (PWL) test, normal rats. It is filed as in vivo, rat. The note with it: any CBD dose (0.6, 3.1, 6.2 mg/d). The procedure: Secondary thermal hyperalgesia was assessed with the paw withdrawal latency (PWL) test (Hargreaves et al. (1988) Pain 32: 77-88). PWLs were measured in response to a radiant heat source shone on one hind paw of the animals from beneath a glass top table. A shortened PWL response in animals with knee joint inflammation was indicative of secondary thermal hyperalgesia. Animals were placed in separate plastic cubicles (4×4×10 in) on a glass top table (2 mm thickness of glass) and allowed to adapt to their new environment for 20-30 min before testing. A small movable metal box that focused a high-intensity light beam through an aperture (0.5 cm×0.5 cm) was attached to an on/off switch and a digital timer. […] At that time, the light is switched off and the number of seconds on the digital timer recorded as the PWL (sec). […] A mean of the 5 trials was calculated for each animal. […]
Baseline parameters (body weight, knee joint temperature, and knee joint circumference) were obtained before the knee injection of rats with CFA. […] Exploratory activity was monitored prior to initial gel application and on the third day post gel application (after 6 h). […] Blood samples were obtained for CBD plasma quantification, and tissues (knee joints, dorsal root ganglia, spinal cord, brain) were collected after perfusion. […]

The subject of data set [2] is CFA mono-arthritic knee joints in Sprague-Dawley rats. In words: Knee joint circumference in CFA-induced monoarthritis. It is filed as in vivo, rat. Particulars: Post-CBD, four consecutive days (day 4), mean ± SD.
For data set [3] the following is noted: hairless guinea pigs, 1% hydroalcoholic CBD gel, up to 8 h post application; cited from earlier work.
Data set [4] concerns rats with CFA induced mono-arthritis. In words: Secondary thermal hyperalgesia, paw withdrawal latency (PWL) test, CFA rats. The class given is in vivo, rat.
The conditions of data set [5]: cited from earlier work.
For a further data set, the target named is CB2 (Homo sapiens, UniProt P34972). The note with it: cited from earlier work.
For data set [6], the system named is CFA mono-arthritic knee joints in Sprague-Dawley rats. In words: Knee joint temperature in CFA-induced monoarthritis. Particulars: for Knee joint temperature: Post-CBD, four consecutive days (day 4), mean ± SD. It is filed as in vivo, rat.

Sequence of CB2 (P34972 whole entry, species assumed): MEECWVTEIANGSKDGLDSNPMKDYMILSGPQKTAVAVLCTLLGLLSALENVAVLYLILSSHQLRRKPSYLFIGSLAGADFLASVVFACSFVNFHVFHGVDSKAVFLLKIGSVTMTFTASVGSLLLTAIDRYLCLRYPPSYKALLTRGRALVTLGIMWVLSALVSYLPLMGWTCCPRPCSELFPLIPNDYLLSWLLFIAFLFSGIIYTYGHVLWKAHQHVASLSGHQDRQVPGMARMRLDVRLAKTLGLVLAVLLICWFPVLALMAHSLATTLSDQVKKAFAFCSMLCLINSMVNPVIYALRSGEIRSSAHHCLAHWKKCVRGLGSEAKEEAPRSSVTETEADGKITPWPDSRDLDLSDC

For the compound `C=C(C)C1CCC(C)=CC1c1c(O)cc(CCCCC)cc1O` (stereo not drawn) [CBD, 2-[3-methyl-6-(1-methylethenyl)-2-cyclohexen-1-yl]-5-pentyl-1,3-benzenedi-ol], the “Exploratory activities, six parameters (rearing events, rearing time, total beams broken, distance traveled, active time, resting time), differences” value with normal (non-CFA) rats is recorded as “No significant (p>0.05) differences; also recorded: no differences in activity measurements”. For the same compound, the “Linear pharmacokinetic correlation, slope” value in [1] was determined as 1.0. Besides, in the data set on normal rats, the “Effect on PWL in normal animals” value was “no effect; also recorded: not affected”. In addition, the Knee joint circumference in data set [2] (0.6 mg/d CBD gel on skin) was 7.0 ± 0.3^b cm; in data set [2] (3.1 mg/d CBD gel on skin) it was 7.1 ± 0.3^b cm; in [2] (6.2 mg/d CBD gel on skin), 6.6±0.2 cm and 6.6 ± 0.2^b* cm; in data set [2] (62.3 mg/d CBD gel on skin), 6.6±0.1 cm and 6.6 ± 0.1^a* cm. In data set [3], the “Residual drug remaining on the skin surface” value is reported as “approximately 15%”. Besides, the “PWL scores, improvement” value in data set [4] (0.6 mg/d and 3.1 mg/d, day 4) was “did not have improved PWL scores”. Besides, the “PWL, improvement compared to CFA rats receiving vehicle gel” value in data set [4] (6.2 mg/d, 4 h (d 1) post CBD dosing, p<0.05) is listed as “improvement”. Further, the Cmax plasma concentration in data set [5] (hairless guinea pigs dosed once with 6.2 mg/d CBD gel, n=3) is 45.8 ± 8.4 ng/mL; in data set [5] (hairless guinea pigs, 6.2 mg/d CBD gel, after 3 consecutive days of gel application, n=5) it was 85.6 ± 48.4 ng/mL. Besides, the “Time out to which CBD plasma concentrations were detected” value in data set [5] (hairless guinea pigs, after a single initial gel application) is listed as 120 h. The time to peak (Tmax) is 40.0 ± 14.5 h in data set [5] (hairless guinea pigs, multiple applications) and 6.7 ± 2.1 h in [5] (hairless guinea pigs, single application). In addition, at CB2, the “Binding affinity for CB2” value is listed as “little binding affinity”. In [6] (0.6 to 62.3 mg/d CBD versus vehicle gel, p>0.05), the “Differences in knee joint temperature among the treatment groups” value was “no significant differences”. Also, the Knee joint temperature in data set [6] (0.6 mg/d) was 31.2 ± 0.7^b ° C; in data set [6] (3.1 mg/d) it was 30.6 ± 0.6^b ° C; in data set [6] (6.2 mg/d), 31.7 ± 2.1^b ° C; in data set [6] (62.3 mg/d), 30.2 ± 0.9^a ° C.

As a reminder, the Tmax is the time at which the peak concentration occurs.
